The text below walks through data of patent US9090621B2, “Tyrosine kinase inhibitors” (Principia Biopharma Inc., priority 2013, dated 2015).

The target in the first test is T1, human recombinant Btk (Homo sapiens (Human), UniProt Q06187). The test is described as follows: biochemical.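 Further: Read-out is the quantity of phosphorylated substrate product formed, and IC50 reflects inhibition of Btk kinase activity.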
T1 sequence (Q06187 whole entry): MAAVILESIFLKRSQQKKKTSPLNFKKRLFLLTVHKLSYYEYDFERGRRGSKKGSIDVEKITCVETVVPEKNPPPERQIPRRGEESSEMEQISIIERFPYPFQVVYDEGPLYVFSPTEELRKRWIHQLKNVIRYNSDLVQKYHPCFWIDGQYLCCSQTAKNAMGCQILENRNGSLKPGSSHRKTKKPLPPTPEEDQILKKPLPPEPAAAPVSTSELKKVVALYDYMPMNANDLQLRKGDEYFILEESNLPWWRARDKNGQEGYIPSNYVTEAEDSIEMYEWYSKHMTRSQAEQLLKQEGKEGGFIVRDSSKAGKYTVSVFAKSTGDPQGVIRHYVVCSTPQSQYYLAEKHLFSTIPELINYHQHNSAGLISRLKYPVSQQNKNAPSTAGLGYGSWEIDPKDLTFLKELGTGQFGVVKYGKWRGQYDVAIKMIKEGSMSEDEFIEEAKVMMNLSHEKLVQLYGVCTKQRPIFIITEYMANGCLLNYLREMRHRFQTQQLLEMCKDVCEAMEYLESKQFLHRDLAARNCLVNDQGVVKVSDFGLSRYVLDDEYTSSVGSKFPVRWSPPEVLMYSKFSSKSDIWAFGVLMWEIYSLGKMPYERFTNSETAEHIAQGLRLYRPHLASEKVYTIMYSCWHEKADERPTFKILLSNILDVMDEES
Conditions: not given
On to `CC(C)(C)C=C(C#N)C(=O)N1CCC[C@@H](n2nc(-c3ccc(Oc4ccccc4)cc3)c3c(N)ncnc32)C1` [29 A, (R)-2-(3-(4-amino-3-(4-phenoxyphenyl)-1H-pyrazolo[3,4-d]pyrimidin-1-yl)piperidine-1-carbonyl)-4,4-dimethylpent-2-enenitrile], for which the IC50 amounted to 2.7 nM.

As to `N#CC(=CC1CC1)C(=O)N1CCC[C@@H]1Cn1nc(-c2ccc(Oc3cc(F)cc(F)c3)cc2)c2c(N)ncnc21` [Example 25A, (R)-2-(2-((4-amino-3-(4-(3,5-difluorophenoxy)phenyl)-1H-pyrazolo[3,4-d]pyrimidin-1-yl)methyl)pyrrolidine-1-carbonyl)-3-cyclopropylacrylonitrile], the IC50 was found to be 9.6 nM.

With `N#CC(=CC1CC1)C(=O)N1CCC[C@H]1Cn1nc(-c2ccc(Oc3cc(F)cc(F)c3)cc2)c2c(N)ncnc21` [Example 25B, (S)-2-(2-((4-amino-3-(4-(3,5-difluorophenoxy)phenyl)-1H-pyrazolo[3,4-d]pyrimidin-1-yl)methyl)pyrrolidine-1-carbonyl)-3-cyclopropylacrylonitrile], the IC50 amounted to 140 nM.

For `N#CC(=CC1CC1)C(=O)N1CCC[C@@H]1Cn1nc(-c2ccc(Oc3c(F)cccc3F)cc2)c2c(N)ncnc21` [Example 32A, (R)-2-(2-((4-amino-3-(4-(2,6-difluorophenoxy)phenyl)-1H-pyrazolo[3,4-d]pyrimidin-1-yl)methyl)pyrrolidine-1-carbonyl)-3-cyclopropylacrylonitrile], the concentration for half-maximal inhibition (IC50) was 1.7 nM.

Consider `N#CC(=CC1CC1)C(=O)N1CCC[C@@H]1Cn1nc(-c2ccc(Oc3cc(F)cc(F)c3)cc2F)c2c(N)ncnc21` [Example 41A, (R)-2-(2-((4-amino-3-(2-fluoro-4-(3,5-difluorophenoxy)phenyl)-1H-pyrazolo[3,4-d]pyrimidin-1-yl)methyl)pyrrolidine-1-carbonyl)-3-cyclopropylacrylonitrile], for which the IC50 amounted to 3.2 nM.

As for `Cc1cc(Oc2ccccc2)ccc1-c1nn(C[C@H]2CCCN2C(=O)C(C#N)=CC2CC2)c2ncnc(N)c12` [Example 69A, (R)-2-(2-((4-amino-3-(2-methyl-4-phenoxyphenyl)-1H-pyrazolo[3,4-d]pyrimidin-1-yl)methyl)pyrrolidine-1-carbonyl)-3-cyclopropylacrylonitrile], the IC50 was found to be 5 nM.

For the compound `CC(C)C=C(C#N)C(=O)N1CCC[C@H]1Cn1nc(-c2ccc(Oc3cccc(F)c3)cc2F)c2c(N)ncnc21` [Example 73B, (S)-2-(2-((4-amino-3-(2-fluoro-4-(3-fluorophenoxy)phenyl)-1H-pyrazolo[3,4-d]pyrimidin-1-yl)methyl)pyrrolidine-1-carbonyl)-4-methylpent-2-enenitrile], the IC50 is 11 nM.

In the case of `CC(C)C=C(C#N)C(=O)N1CCC[C@H]1Cn1nc(-c2ccc(Oc3c(F)cccc3F)cc2)c2c(N)ncnc21` [Example 75B, (S)-2-(2-((4-amino-3-(4-(2,6-difluorophenoxy)phenyl)-1H-pyrazolo[3,4-d]pyrimidin-1-yl)methyl)pyrrolidine-1-carbonyl)-4-methylpent-2-enenitrile], the half-maximal inhibitory concentration (IC50) is 100 nM.

As for `CC(C)C=C(C#N)C(=O)N1CCC[C@H]1Cn1nc(-c2ccc(Oc3cccc(F)c3F)cc2)c2c(N)ncnc21` [Example 76B, (S)-2-(2-((4-amino-3-(4-(2,3-difluorophenoxy)phenyl)-1H-pyrazolo[3,4-d]pyrimidin-1-yl)methyl)pyrrolidine-1-carbonyl)-4-methylpent-2-enenitrile], the IC50 stood at 7 nM.

`C[C@@H](Cn1nc(-c2ccc(Oc3ccccc3)cc2F)c2c(N)ncnc21)NC(=O)C(C#N)=CC(C)(C)N(C)C` [Example 185B, (S)-N-(1-(4-amino-3-(2-fluoro-4-phenoxyphenyl)-1H-pyrazolo[3,4-d]pyrimidin-1-yl)propan-2-yl)-2-cyano-4-(dimethylamino)-4-methylpent-2-enamide]: the half-inhibitory concentration (IC50) stood at 11 nM.

In a further test the test system is protein target. The test is described as follows: Reversibility of Binding (compound in solution before and after perturbation of the target, HPLC-MS/MS). The conditions noted are these: after denaturation with 5 M guanidine hydrochloride and digestion with trypsin. Here is the method: The following approach was developed to differentiate compounds that form irreversible bonds with their targets, such as acrylamide compounds, from compound that bind reversibly. […] The reactions were then treated with perturbations including both denaturation with 5 M guanidine hydrochloride and digestion with trypsin, disrupting proper folding of the target. […] The concentration of compound in solution was assessed both preceding and following perturbation using high performance liquid chromatography (HPLC) coupled to tandem mass spectrometry.
`N#CC(=CC1CC1)C(=O)N1CCC[C@@H](n2cc(-c3ccc(Oc4ccccc4)cc3)c3c(N)ncnc32)C1` [Example 27, (R)-2-(3-(4-amino-5-(4-phenoxyphenyl)-7H-pyrrolo[2,3-d]pyrimidin-7-yl)piperidine-1-carbonyl)-3-cyclopropylacrylonitrile]: the “Compound in solution in the denatured or digested state?” value is “yes”.

Staying with this test, now noted: protein target at a higher concentration than the compound; before perturbation.
For `N#CC(=CC1CC1)C(=O)N1CCC[C@@H](n2cc(-c3ccc(Oc4ccccc4)cc3)c3c(N)ncnc32)C1` [Example 27, (R)-2-(3-(4-amino-5-(4-phenoxyphenyl)-7H-pyrrolo[2,3-d]pyrimidin-7-yl)piperidine-1-carbonyl)-3-cyclopropylacrylonitrile], the “Compound in solution in the native state?” value is “depleted in the folded state and no”.

Another test addresses T1, human recombinant Btk.
Test: not given
The conditions noted are these: Caliper-based kinase assay; human recombinant Btk 2 nM, ATP 40 μM, peptide substrate 1 μM, room temperature 3 h.
As for `CCNC(C)(C)C=C(C#N)C(=O)N1CCCC1Cn1nc(-c2ccc(Oc3ccccc3)cc2F)c2c(N)ncnc21` (stereo in doubt) [Example 85A, (S)-2-(2-((4-amino-3-(2-fluoro-4-phenoxyphenyl)-1H-pyrazolo[3,4-d]pyrimidin-1-yl)methyl)pyrrolidine-1-carbonyl)-4-(ethylamino)-4-methylpent-2-enenitrile], the IC50 was found to be 0.4 nM.

Consider `CCNC(C)(C)C=C(C#N)C(=O)N1CCCC1Cn1nc(-c2ccc(Oc3ccccc3)cc2F)c2c(N)ncnc21` (stereo in doubt) [Example 85B, (R)-2-(2-((4-amino-3-(2-fluoro-4-phenoxyphenyl)-1H-pyrazolo[3,4-d]pyrimidin-1-yl)methyl)pyrrolidine-1-carbonyl)-4-(ethylamino)-4-methylpent-2-enenitrile], for which the concentration for half-maximal inhibition (IC50) came to 17.2 nM.

In the case of `CC(C)(C)C=C(C#N)C(=O)NC1CCC(n2nc(-c3ccc(NC(=O)c4ccc(C(F)(F)F)cc4)cc3)c3c(N)ncnc32)CC1` (stereo not drawn) [8 (Cpd Table 2), N-(4-(4-amino-1-((1r,4r)-4-(2-cyano-4,4-dimethylpent-2-enamido)cyclohexyl)-1H-pyrazolo[3,4-d]pyrimidin-3-yl)phenyl)-4-(trifluoromethyl)benzamide], the IC50 was greater than 1000 nM.

`CC(C)(C)C=C(C#N)C(=O)NC1CCC(n2nc(-c3ccc(NC(=O)c4ccc(C(F)(F)F)cc4)cc3)c3c(N)ncnc32)CC1` (stereo not drawn) [10 (Cpd Table 2), N-(4-(4-amino-1-((1s,4s)-4-(2-cyano-4,4-dimethylpent-2-enamido)cyclohexyl)-1H-pyrazolo[3,4-d]pyrimidin-3-yl)phenyl)-4-(trifluoromethyl)benzamide]: the IC50 was greater than 1000 nM.

For `NC(=O)C(=CC1CC1)C(=O)N1CCC[C@@H](n2nc(-c3ccc(Oc4cccc(F)c4)cc3)c3c(N)ncnc32)C1` [Example 15A, (R)-2-(3-(4-amino-3-(4-(3-fluorophenoxy)phenyl)-1H-pyrazolo[3,4-d]pyrimidin-1-yl)piperidine-1-carbonyl)-3-cyclopropylacrylamide], the IC50 came out at 1.7 nM.

Consider `N#CC(=CC1CC1)C(=O)N1CCCC1Cn1nc(-c2ccc(Oc3ccccc3)cc2)c2c(N)ncnc21` (stereo not drawn) [Example 22B], for which the half-inhibitory concentration (IC50) was 2.6 nM.

As for `N#CC(=CC1CC1)C(=O)N1CCC[C@@H]1Cn1nc(-c2ccc(Oc3cccc(F)c3)cc2)c2c(N)ncnc21` [Example 24A, (R)-2-(2-((4-amino-3-(4-(3-fluorophenoxy)phenyl)-1H-pyrazolo[3,4-d]pyrimidin-1-yl)methyl)pyrrolidine-1-carbonyl)-3-cyclopropylacrylonitrile], the half-maximal inhibitory concentration (IC50) amounted to 6.2 nM.

On to `NC(=O)C(=CC1CC1)C(=O)N1CCC[C@@H](n2nc(-c3ccc(Oc4c(F)cccc4F)cc3)c3c(N)ncnc32)C1` [Example 36A, (R)-2-(3-(4-amino-3-(4-(2,6-difluorophenoxy)phenyl)-1H-pyrazolo[3,4-d]pyrimidin-1-yl)piperidine-1-carbonyl)-3 cyclopropylacrylamide], for which the IC50 amounted to 4.3 nM.

`N#CC(=CC1CC1)C(=O)N1CCC[C@H]1Cn1cc(-c2ccc(Oc3ccccc3)cc2F)c2c(N)ncnc21` [Example 59B, (S)-2-(2-((4-amino-5-(2-fluoro-4-phenoxyphenyl)-7H-pyrrolo[2,3-d]pyrimidin-7-yl)methyl)pyrrolidine-1-carbonyl)-3-cyclopropylacrylonitrile]: the half-maximal inhibitory concentration (IC50) came to 26 nM.

Turning to `CC(C)(CNC(=O)C(C#N)=CC1CC1)Cn1nc(-c2ccc(Oc3ccccc3)cc2)c2c(N)ncnc21` [Example 67, N-(3-(4-amino-3-(4-phenoxyphenyl)-1H-pyrazolo[3,4-d]pyrimidin-1-yl)-2,2-dimethylpropyl)-2-cyano-3-cyclopropylacrylamide], the half-inhibitory concentration (IC50) came to 27 nM.

With `CC(C)(N)C=C(C#N)C(=O)N1CCC[C@H]1Cn1nc(-c2ccc(Oc3cccc(F)c3)cc2F)c2c(N)ncnc21` [Example 72B, (S)-4-amino-2-(2-((4-amino-3-(2-fluoro-4-(3-fluorophenoxy)phenyl)-1H-pyrazolo[3,4-d]pyrimidin-1-yl)methyl)pyrrolidine-1-carbonyl)-4-methylpent-2-enenitrile], the half-inhibitory concentration (IC50) was 28 nM.

With `CCOC(C)(C)C=C(C#N)C(=O)N1CCC[C@@H](n2nc(-c3ccc(Oc4cccc(F)c4F)cc3F)c3c(N)ncnc32)C1` [Example 156A, (R)-2-(3-(4-amino-3-(4-(2,3-difluorophenoxy)-2-fluorophenyl)-1H-pyrazolo[3,4-d]pyrimidin-1-yl)piperidine-1-carbonyl)-4-ethoxy-4-methylpent-2-enenitrile], the concentration for half-maximal inhibition (IC50) was 7.3 nM.

With `CC(C)(C=C(C#N)C(=O)N1CCC[C@@H](n2nc(-c3ccc(Oc4cccc(F)c4F)cc3F)c3c(N)ncnc32)C1)N1CCOCC1` [Example 162A, (R)-2-(3-(4-amino-3-(4-(2,3-difluorophenoxy)-2-fluorophenyl)-1H-pyrazolo[3,4-d]pyrimidin-1-yl)piperidine-1-carbonyl)-4-methyl-4-morpholinopent-2-enenitrile], the concentration for half-maximal inhibition (IC50) stood at 0.9 nM.

As for `CC(C)(C)C=C(C#N)C(=O)N1CCC[C@@H]1Cn1cc(-c2ccc(Oc3cccc(F)c3F)cc2)c2c(N)ncnc21` [Example 173B], the half-inhibitory concentration (IC50) was 34 nM.

For the compound `CC1(C=C(C#N)C(=O)N2CCC[C@H]2Cn2nc(-c3ccc(Oc4ccccc4)cc3F)c3c(N)ncnc32)COC1` [Example 197B], the IC50 came out at 32.5 nM.

The IC50 is the concentration that gives 50% inhibition.
